Source: patent publication US7683171B2, “1H-imidazo[4,5-d]thieno[3,2-b]pyridine based tricyclic compounds and pharmaceutical compositions comprising same” (Bristol-Myers Squibb Company, priority 2005, dated 2010)

System: T98
Experiment: Ames testing
Type: cell-based
Conditions: T98 with S9 activation

For Cl.Cn1cnc2c(N)nc3cc(-c4cccc(F)c4)sc3c21 [Example A5, 7-(3-Fluorophenyl)-1-methyl-1H-imidazo[4,5-d]thieno[3,2-b]pyridin-4-amine hydrochloride salt], the Ames testing was “positive”.
